Laboratory results taken from PubChem BioAssay (NCI).
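Results reflect a 48-hour exposure of cells in 96-well plates to compound at five concentrations. GI50 marks 50% less growth. At the TGI there is no net growth.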

Key:
Assay in all cases: DTP human tumour cell line panel, 48 h
A549 NSCLC = system: A549 NSCLC
K-562 leukemia = system: K-562 leukemia
NCI/ADR-RES ovarian = system: NCI/ADR-RES ovarian
OVCAR-3 ovarian = system: OVCAR-3 ovarian
OVCAR-5 ovarian = system: OVCAR-5 ovarian
OVCAR-8 ovarian = system: OVCAR-8 ovarian
RXF 393 renal = system: RXF 393 renal
SF-539 CNS = system: SF-539 CNS
SK-MEL-5 melanoma = system: SK-MEL-5 melanoma
T-47D breast = system: T-47D breast

Structure (SMILES)	GI50 (A549 NSCLC)	TGI (A549 NSCLC)	GI50 (K-562 leukemia)	TGI (K-562 leukemia)	GI50 (NCI/ADR-RES ovarian)	TGI (NCI/ADR-RES ovarian)	GI50 (OVCAR-3 ovarian)	TGI (OVCAR-3 ovarian)	GI50 (OVCAR-5 ovarian)	TGI (OVCAR-5 ovarian)	GI50 (OVCAR-8 ovarian)	TGI (OVCAR-8 ovarian)	GI50 (RXF 393 renal)	TGI (RXF 393 renal)	GI50 (SF-539 CNS)	TGI (SF-539 CNS)	GI50 (SK-MEL-5 melanoma)	TGI (SK-MEL-5 melanoma)	GI50 (T-47D breast)	TGI (T-47D breast)
CCN1[C@@H](C(=O)NC23CCC(C(=O)O)(CC2)CC3)[C@H](c2cccc(Cl)c2F)[C@]2(C(=O)Nc3cc(Cl)ccc32)C12CCCCC2	0.177 µM	7.03 µM	2.98 µM	> 100 µM	5.65 µM	42.5 µM	2.53 µM	7.74 µM	3.74 µM	17.8 µM	3.84 µM	18.7 µM	1.99 µM	5.69 µM	2.78 µM	10.6 µM	1.39 µM	2.75 µM	3.13 µM	19.4 µM
O=C(CC1(O)C(=O)Nc2ccc(F)cc21)c1ccc(C(=O)NCC2CCC3(CC2)OOC2(CCCCC2)OO3)cc1 (centres undefined)	2.49 µM	5.81 µM	3.49 µM	21.9 µM	15.9 µM	48.3 µM	1.85 µM	4.18 µM	15.7 µM	36.5 µM	6.3 µM	35.8 µM	6.19 µM	21.7 µM	3.64 µM	14.8 µM	3.69 µM	14.4 µM	5 µM	44.2 µM
COc1ccc(-c2nc(-c3nc4cc(Cl)c(F)cc4[nH]3)c3ccccn23)cc1	4.04 µM	> 100 µM	4.84 µM	> 100 µM	5.5 µM	> 100 µM	8.75 µM	> 100 µM	> 100 µM	> 100 µM	3.45 µM	> 100 µM	4.65 µM	> 100 µM	39.8 µM	> 100 µM	2.22 µM	6.79 µM	3.54 µM	33.1 µM
O=[N+]([O-])c1cc([As](Br)c2ccc(O)c([N+](=O)[O-])c2)ccc1O	–	7.02 µM	–	> 23.2 µM	–	8.81 µM	–	3.53 µM	–	4.2 µM	–	3.21 µM	–	3.22 µM	–	3.93 µM	–	3.1 µM	–	0.557 µM
CC(C)(C)[Si](C)(C)OC1[C@@H](CNC(N)=O)O[C@@H](n2cnc3c(NC(=O)Nc4ccccc4)ncnc32)[C@H]1O[Si](C)(C)C(C)(C)C (some centres undefined)	1.98 µM	7.82 µM	1.06 µM	2.13 µM	2.93 µM	9.81 µM	1.12 µM	2.31 µM	6.65 µM	13.5 µM	1.77 µM	7.32 µM	1.95 µM	7.02 µM	6.73 µM	13.6 µM	6.82 µM	13.5 µM	7.56 µM	14.2 µM
CSc1ncnc2c1ncn2CC(=O)C1CCC2C3CCC4=CC(=O)CCC4(C)C3CCC12C (centres undefined)	–	> 64.7 µM	–	> 71.8 µM	–	7.57 µM	–	25.8 µM	–	> 100 µM	–	> 40.7 µM	–	> 100 µM	–	44.7 µM	–	5.15 µM	–	5.63 µM
COc1ccc(-c2c(C#N)c(N)nc(N3CCOCC3)c2C#N)cc1	29.4 µM	> 100 µM	34.5 µM	> 100 µM	20.6 µM	87.3 µM	12.9 µM	45.4 µM	13.9 µM	59.9 µM	26 µM	> 100 µM	16.9 µM	47.2 µM	32.1 µM	> 100 µM	19.1 µM	45.9 µM	0.828 µM	6.14 µM
CN(C)CCCOc1cccc(NC2=C(Cl)C(=O)C(Nc3cccc(OCCCN(C)C)c3)=C(Cl)C2=O)c1	1.9 µM	3.5 µM	0.307 µM	1.42 µM	2.62 µM	9.69 µM	0.188 µM	0.355 µM	1.83 µM	3.43 µM	1.57 µM	3.44 µM	0.885 µM	2.22 µM	1.8 µM	3.22 µM	1 µM	2.37 µM	0.243 µM	0.779 µM
COc1cc(OCc2cccc(-c3ccccc3)c2C)cc(OC)c1CN1CCCCC1C(=O)NCCOCCOCCN (centres undefined)	3.04 µM	10.7 µM	1.86 µM	4.4 µM	12.6 µM	27.2 µM	2.11 µM	5.03 µM	3.73 µM	14.9 µM	3.26 µM	12.1 µM	3.26 µM	11.4 µM	1.74 µM	3.25 µM	1.76 µM	3.21 µM	1.77 µM	3.77 µM
ClCc1cccc(Cn2cnc3c(Cl)nc(Cl)nc32)c1	3.08 µM	9.89 µM	1.6 µM	> 100 µM	2.42 µM	5.23 µM	1.59 µM	3.21 µM	6.52 µM	20.2 µM	1.81 µM	3.51 µM	0.76 µM	2.1 µM	2.2 µM	14.1 µM	1.59 µM	3.05 µM	1.97 µM	4.5 µM
COc1cc(OC)c2sc(-c3ccc(-n4cncc4-c4ccc(OC)c(OC)c4)cc3)nc2c1	41.8 µM	> 100 µM	5.88 µM	> 100 µM	> 100 µM	> 100 µM	3.85 µM	35.9 µM	> 100 µM	> 100 µM	21.2 µM	> 100 µM	3.55 µM	> 100 µM	> 100 µM	> 100 µM	3.61 µM	> 100 µM	3.78 µM	> 100 µM
CCn1cc(/C=C2\Oc3cc(OCC#N)ccc3C2=O)c2cc(OC)ccc21	2.48 µM	> 100 µM	0.0888 µM	> 100 µM	0.161 µM	> 32.9 µM	0.127 µM	4.94 µM	1.41 µM	> 100 µM	0.53 µM	> 100 µM	0.152 µM	0.614 µM	0.113 µM	0.818 µM	0.204 µM	4.17 µM	0.961 µM	> 100 µM
COc1cccc(CNc2ncnc3c2ncn3C2OC(CO)C(O)C2O)c1O (centres undefined)	1.05 µM	> 100 µM	0.311 µM	> 100 µM	0.168 µM	> 100 µM	0.539 µM	4.11 µM	0.417 µM	> 100 µM	0.0679 µM	> 43 µM	0.0438 µM	0.36 µM	0.144 µM	1.85 µM	1.43 µM	> 100 µM	0.0549 µM	–
